Each structure is given as a SMILES string. Counter-ions that a name gives are not always drawn.

This test has as its target T1, human CRF1 receptor (Homo sapiens, UniProt P34998).
T1 construct: expressed in transfected cells; host or cells: CHO cells (membrane fraction)
T1 sequence (P34998 24-415): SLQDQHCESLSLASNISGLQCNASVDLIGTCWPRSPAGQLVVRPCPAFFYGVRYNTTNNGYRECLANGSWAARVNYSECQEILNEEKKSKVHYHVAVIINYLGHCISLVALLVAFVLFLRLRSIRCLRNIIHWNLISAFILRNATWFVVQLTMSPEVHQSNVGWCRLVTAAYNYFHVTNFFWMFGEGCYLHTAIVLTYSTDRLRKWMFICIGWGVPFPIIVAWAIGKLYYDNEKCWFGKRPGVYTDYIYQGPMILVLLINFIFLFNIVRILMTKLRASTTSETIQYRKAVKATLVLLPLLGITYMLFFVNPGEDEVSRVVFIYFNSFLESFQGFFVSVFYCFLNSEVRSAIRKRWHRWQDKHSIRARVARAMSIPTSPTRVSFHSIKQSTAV
Kind of test: Measurement of CRF Binding Inhibitory Rate (receptor binding experiment with 125I-CRF). Conditions: human CRF1 receptor expressing CHO cellular membrane fraction, 50 pM 125I-CRF, room temperature 1.5 hr, 0.05 nM to 10 μM of compound; read-out: IC50 values (CRF binding inhibition). The protocol:
Measurement of CRF Binding Inhibitory Rate
A receptor binding experiment was carried out using a human CRF1 receptor expressing CHO cellular membrane fraction and ovine CRF, [^125I]-tyr^0(^125I-CRF). 1000 nM of a test compound was incubated with 1 μg of human CREF receptor expressing CHO cellular membrane fraction and 50 pM of ^125I-CRF in a binding assay buffer (50 mM Tris-HCl, 5 mM EDTA, 10 mM MgCl2, 0.05% CHAPS, 0.1% BSA, 0.5 mM PMSF, 0.1 μg/mL pepstatin, 20 μg/mL leupeptin, pH 7.5). In addition, for measuring nonspecific binding (NSB), 0.1 μM unlabelled human Urocortin was incubated with 5 μg of human CRE receptor expressing CHO cellular membrane fraction and 50 pM of ^125I-CRF in a binding assay buffer. After a binding reaction was carried out at room temperature for 1.5 hr, the membrane was entrapped on a glass filter (UniFilter plate GF-C/Perkin Elmer) by suction filtration using a cell harvester (Perkin Elmer), and washed with ice-cooled 50 mM Tris-HCl (pH 7.5). After drying the glass filter, a liquid scintillation cocktail (Microscinti 0, Perkin Elmer) was added, and the radioactivity of ^125I-CRF remaining on a glass filter was measured using Topcount (Perkin Elmer).
(TB−SB)/(TB−NSB)×100 (SB: radioactivity when a compound is added, TB: maximum binding radioactivity, NSB: nonspecific binding radioactivity) were calculated to obtain binding inhibitory rates under the range of the presence from 0.05 nM to 10 μM of each compound. The IC50 values were calculated by using GraphPad Prism software.
With `CCC(C(=O)C(F)(F)F)c1ccc(Cl)c2nc3n(c12)CCCN3c1ccc(Cl)cc1Cl` (stereo not drawn) [Example 318], the IC50 is under 1000 nM.

As to `CCC(CC)c1ccc(Cl)c2nc3n(c12)CCN3c1ncc(C(F)(F)F)cc1Cl` [Example 225, 8-Chloro-1-[3-chloro-5-(trifluoromethyl)pyridin-2-yl]-5-(1-ethylpropyl)-2,3-dihydro-1H-imidazo[1,2-a]benzimidazole], the half-maximal inhibitory concentration (IC50) was under 1000 nM.

For the molecule `CCC(CC)c1ccc(Cl)c2nc3n(c12)CCCCN3c1ccc(OC(F)(F)F)cc1` [Example 40, 10-Chloro-7-(1-ethylpropyl)-1-[4-(trifluoromethoxy)phenyl]-2,3,4,5-tetrahydro-1H-[1,3]diazepino[1,2-a]benzimidazole], the IC50 is under 1000 nM.

On to `CCC(OC1CC1)c1ccc(Cl)c2nc3n(c12)CCCN3c1ccc(OC)cc1Cl` (stereo not drawn) [Example 474, 9-Chloro-1-(2-chloro-4-methoxyphenyl)-6-[1-(cyclopropyloxy)propyl]-1,2,3,4-tetrahydropyrimido[1,2-a]benzimidazole], for which the IC50 was under 1000 nM.

On to `CCC(OCCOC)c1cccc2nc3n(c12)CCCN3c1ccc(Cl)cc1Cl` (stereo not drawn) [Example 94, 1-(2,4-Dichlorophenyl)-6-[1-(2-methoxyethoxy)propyl]-1,2,3,4-tetrahydropyrimido[1,2-a]benzimidazole], for which the half-inhibitory concentration (IC50) was under 1000 nM.

In the case of `CCC(OC1CC1)c1ccc(Cl)c2nc3n(c12)CCCN3c1ccc(OC)nc1C` (stereo not drawn) [Example 271, 9-Chloro-6-[1-(cyclopropyloxy)propyl]-1-(6-methoxy-2-methylpyridin-3-yl)-1,2,3,4-tetrahydropyrimido[1,2-a]benzimidazole], the IC50 was under 1000 nM.

`CCN(CC)c1cccc2nc3n(c12)CC(F)(F)CCN3c1ccc(Cl)cc1Cl` [Example 359, 1-(2,4-Dichlorophenyl)-N,N-diethyl-4,4-difluoro-2,3,4,5-tetrahydro-1H-[1,3]diazepino[1,2-a]benzimidazol-7-amine]: the IC50 was under 1000 nM.

On to `CCC(c1ccc(Cl)c2nc3n(c12)CCCN3c1ccc(Cl)cc1Cl)N(C)C(C)=O` (stereo not drawn) [Example 388, N-{1-[9-Chloro-1-(2,4-dichlorophenyl)-1,2,3,4-tetrahydropyrimido[1,2-a]benzimidazol-6-yl]propyl}-N-methylacetamide], for which the IC50 was under 1000 nM.

On to `CCC(CC#N)c1ccc(Cl)c2nc3n(c12)CCCN3c1ccc(Cl)cc1Cl` (stereo not drawn) [Example 316, 3-[9-Chloro-1-(2,4-dichlorophenyl)-1,2,3,4-tetrahydropyrimido[1,2-a]benzimidazol-6-yl]pentanenitrile], for which the IC50 is under 1000 nM.

Turning to `CC/C(=N\OC(F)F)c1ccc(Cl)c2nc3n(c12)CCCN3c1c(Cl)cc(Cl)cc1Cl` [Example 194, (1E)-1-[9-Chloro-1-(2,4,6-trichlorophenyl)-1,2,3,4-tetrahydropyrimido[1,2-a]benzimidazol-6-yl]propan-1-one O-(difluoromethyl)oxime], the half-inhibitory concentration (IC50) was under 1000 nM.

Turning to `OC(c1ccc(Br)c2nc3n(c12)CCCN3c1ccc(Cl)cc1Cl)(C1CC1)C1CC1` [Example 368, [9-Bromo-1-(2,4-dichlorophenyl)-1,2,3,4-tetrahydropyrimido[1,2-a]benzimidazol-6-yl](dicyclopropyl)methanol], the IC50 was under 1000 nM.

Consider `CCC(CC)c1ccc(Cl)c2nc3n(c12)CCN3c1ccc(C=O)cc1Cl` [Example 16, 3-Chloro-4-[8-chloro-5-(1-ethylpropyl)-2,3-dihydro-1H-imidazo[1,2-a]benzimidazol-1-yl]benzaldehyde], for which the 50% inhibitory concentration (IC50) was under 1000 nM.

`CCC(CC)c1ccc(Cl)c2nc3n(c12)CC(=O)N3c1cnc(N(C)C)cc1C` [Example 9, 8-Chloro-1-[6-(dimethylamino)-4-methylpyridin-3-yl]-5-(1-ethylpropyl)-1H-imidazo[1,2-a]benzimidazol-2(3H)-one]: the concentration for half-maximal inhibition (IC50) is under 1000 nM.

`CCC(c1ccc(Cl)c2nc3n(c12)CCCN3c1ccc(Cl)cc1Cl)C(F)F` (stereo not drawn) [Example 403, 9-Chloro-1-(2,4-dichlorophenyl)-6-[1-(difluoromethyl)propyl]-1,2,3,4-tetrahydropyrimido[1,2-a]benzimidazole]: the 50% inhibitory concentration (IC50) is under 1000 nM.

Take `COC(=O)c1ccc(Cl)c2nc3n(c12)CCCN3c1ncc(C)nc1C` [Example 175, Methyl 9-chloro-1-(3,5-dimethylpyrazin-2-yl)-1,2,3,4-tetrahydropyrimido[1,2-a]benzimidazole-6-carboxylate]: the IC50 was under 1000 nM.

On to `CCC(c1ccc(Cl)c2nc3n(c12)CCCN3c1ccc(Cl)cc1Cl)C(C)O` (stereo not drawn) [Example 404, 3-[9-Chloro-1-(2,4-dichlorophenyl)-1,2,3,4-tetrahydropyrimido[1,2-a]benzimidazol-6-yl]pentan-2-ol], for which the half-inhibitory concentration (IC50) was under 1000 nM.

For the molecule `CCC(OC(=O)CC(C)(C)O)c1ccc(Cl)c2nc3n(c12)CCCN3c1ccc(Cl)cc1Cl` (stereo not drawn) [Example 444, 1-[9-Chloro-1-(2,4-dichlorophenyl)-1,2,3,4-tetrahydropyrimido[1,2-a]benzimidazol-6-yl]propyl 3-hydroxy-3-methylbutanoate], the half-maximal inhibitory concentration (IC50) was under 1000 nM.

For the molecule `CCC(CC)c1ccc(Cl)c2nc3n(c12)CCCCN3c1ccc(C)cc1CN(C)C` [Example 35, 1-{2-[10-Chloro-7-(1-ethylpropyl)-2,3,4,5-tetrahydro-1H-[1,3]diazepino[1,2-a]benzimidazol-1-yl]-5-methylphenyl}-N,N-dimethylmethanamine hydrochloride], the IC50 is under 1000 nM.

On to `CCC(c1ccc(Cl)c2nc3n(c12)CCCN3c1ccc(Cl)cc1Cl)C(O)C(F)(F)F` (stereo not drawn) [Example 317, 3-[9-chloro-1-(2,4-dichlorophenyl)-1,2,3,4-tetrahydropyrimido[1,2-a]benzimidazol-6-yl]-1,1,1-trifluoropentan-2-ol], for which the IC50 is under 1000 nM.

For `CCN(CC)c1ccc(Cl)c2nc3n(c12)CCCCN3c1ccc(Cl)cc1Cl` [Example 98, 10-Chloro-1-(2,4-dichlorophenyl)-N,N-diethyl-2,3,4,5-tetrahydro-1H-[1,3]diazepino[1,2-a]benzimidazol-7-amine], the concentration for half-maximal inhibition (IC50) is under 1000 nM.

Regarding `CCC(CC)c1ccc(Cl)c2nc3n(c12)CCCCN3c1ccc(OC(F)(F)F)cc1C=O` [Example 41, 2-[10-Chloro-7-(1-ethylpropyl)-2,3,4,5-tetrahydro-1H-[1,3]diazepino[1,2-a]benzimidazol-1-yl]-5-(trifluoromethoxy)benzaldehyde], the IC50 is under 1000 nM.

`CCC(CC)c1ccc(Cl)c2nc3n(c12)CCCCN3c1ccc(OC(F)(F)F)cc1CN(C)C` [Example 42, 1-[2-[10-Chloro-7-(1-ethylpropyl)-2,3,4,5-tetrahydro-1H-[1,3]diazepino[1,2-a]benzimidazol-1-yl]-5-(trifluoromethoxy)phenyl]-N,N-dimethylmethanamine hydrochloride]: the IC50 is under 1000 nM.

On to `COC(=O)c1ccc(Cl)c2nc3n(c12)CCCCN3c1ccc(OC)cc1Cl` [Example 330, Methyl 10-chloro-1-(2-chloro-4-methoxyphenyl)-2,3,4,5-tetrahydro-1H-[1,3]diazepino[1,2-a]benzimidazole-7-carboxylate], for which the IC50 was under 1000 nM.

Take `CCN(CC)c1cccc2nc3n(c12)CCC=C3c1ccc(Cl)cc1Cl` [Example 492, 4-(2,4-Dichlorophenyl)-N,N-diethyl-1,2-dihydropyrido[1,2-a]benzimidazol-9-amine]: the concentration for half-maximal inhibition (IC50) is under 1000 nM.

Turning to `CCC(OC(C)=O)c1ccc(Cl)c2nc3n(c12)CCCN3c1cnc(OC)cc1C` (stereo not drawn) [Example 161, 1-[9-Chloro-1-(6-methoxy-4-methylpyridin-3-yl)-1,2,3,4-tetrahydropyrimido[1,2-a]benzimidazol-6-yl]propyl acetate], the concentration for half-maximal inhibition (IC50) is under 1000 nM.

`CCC(CC)c1ccc(Cl)c2nc3n(c12)CCCCN3c1ncc(N)cc1C` [Example 65, 6-[10-Chloro-7-(1-ethylpropyl)-2,3,4,5-tetrahydro-1H-[1,3]diazepino[1,2-a]benzimidazol-1-yl]-5-methylpyridin-3-amine]: the 50% inhibitory concentration (IC50) was under 1000 nM.

`NC(c1ccc(Cl)c2nc3n(c12)CCCN3c1c(Cl)cc(Cl)cc1Cl)C(F)(F)F` (stereo not drawn) [Example 414, 1-[9-Chloro-1-(2,4,6-trichlorophenyl)-1,2,3,4-tetrahydropyrimido[1,2-a]benzimidazol-6-yl]-2,2,2-trifluoroethanamine]: the IC50 was under 1000 nM.

By IC50 is commonly meant the concentration at which inhibition is half-maximal.

Source of the values: patent publication US8785460B2, “Tricyclic compounds and use thereof” (Takeda Pharmaceutical Company Limited, priority 2008, dated 2014).
